Where two headings read alike, the source gives them in different places.
Columns and labels:
Type in all cases: in vivo
[1] = test system: Beet Armyworm (Spodoptera exigua, LAPHEG); assay: Bioassays on Beet Armyworm (BAW), 128-well diet tray assay; conditions: Spodoptera exigua
How it was run: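 Eight diet wells per compound were treated at 50 μg/cm^2 (acetone-water 90:10), dried, then infested with 1–5 second-instar larvae each. After five to seven days at 25 °C under 14:10 photoperiod, mortality was scored and averaged across wells.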

[2] = test system: Cabbage Looper (Trichoplusia ni, TRIPNI); assay: Bioassays on Cabbage Looper (CL), 128-well diet tray assay; conditions: Trichoplusia ni
How it was run: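 Activity is mean percent mortality over eight wells of second-instar larvae exposed to diet treated at 50 μg/cm^2 for 5–7 days at 25° C.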

[3] = test system: Green Peach Aphid (Myzus persicae, MYZUPE); assay: Bioassays on Green Peach Aphid (GPA), foliar spray on cabbage seedlings; conditions: 72 h
How it was run: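 Percent control (Abbott-corrected versus solvent-sprayed plants) comes from live-aphid counts three days after treatment at about 25° C. Test solution at 200 ppm was sprayed to runoff onto both leaf surfaces of cabbage seedlings infested a day earlier with 20-50 aphids; four replicate pots.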

[4] = test system: Yellow Fever Mosquito (Aedes aegypti, AEDSAE)
How it was run: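 Rating-scale grades reflect larval mortality scored per well after 3 days at room temperature under non-evaporative lids. Larvae (~1 day old, hatched overnight in liver-powder water) were added to six daughter plates per compound, prepared from a 4000 ppm DMSO stock diluted in 90:10 water/acetone.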

[5] = Beet Armyworm, rating class, read-out: BAW
[6] = Cabbage Looper, rating class, read-out: CL
[7] = Green Peach Aphid, rating class, read-out: GPA
[8] = Yellow Fever Mosquito, rating class
[9] = Table ABC: Biological Results, species BAW, read-out: BAW
[10] = Table ABC: Biological Results, species CL, read-out: CL
[11] = Table ABC: Biological Results, species GPA, read-out: GPA
[12] = Table ABC: Biological Results, species YFM

Row | SMILES | pest or weed control at 50 µg/cm2 [1, 5] [%] | pest or weed control at 50 µg/cm2 [2, 6] [%] | pest or weed control at 200 µg/mL [3, 7] [%] | YFM [4, 8] | pest or weed control at 50 µg/cm2 [1, 9] [%] | pest or weed control at 50 µg/cm2 [2, 10] [%] | pest or weed control at 200 µg/mL [3, 11] [%] | YFM [4, 12] | further results
1 | CC(=O)Nc1c(F)ccc(NC(=O)c2cc(NC(=O)[C@H]3[C@H](c4cccc(C(F)(F)F)c4)C3(Cl)Cl)ccc2Cl)c1F [F1678, N-(3-Acetamido-2,4-difluorophenyl)-2-chloro-5-((1R,3R)-2,2-dichloro-3-(3-(trifluoromethyl)phenyl)cyclopropane-1-carboxamido)benzamide] | 50 to 100 | 50 to 100 | 80 to 100 | B (More than 0 – Less than 80) |  |  |  |  | 
2 | O=C(Nc1c(F)ccc(NC(=O)C(F)F)c1F)c1cc(NC(=O)[C@H]2[C@H](c3ccc(Cl)c(Cl)c3)C2(Cl)Cl)ccc1Cl [F1240, 2-Chloro-5-((1R,3R)-2,2-dichloro-3-(3,4-dichlorophenyl)cyclopropane-1-carboxamido)-N-(3-(2,2-difluoroacetamido)-2,6-difluorophenyl)benzamide] |  |  |  |  | 50 to 100 | 50 to 100 | 0 to 80 | A (80–100) | 
3 | CC(=O)Nc1c(F)cc(F)c(NC(=O)c2cc(NC(=O)[C@H]3[C@H](c4ccc(F)c(Cl)c4)C3(Cl)Cl)ccc2Cl)c1F [F1627, N-(3-Acetamido-2,4,6-trifluorophenyl)-2-chloro-5-((1R,3R)-2,2-dichloro-3-(3-chloro-4-fluorophenyl)cyclopropane-1-carboxamido)benzamide] | 50 to 100 | 50 to 100 | 80 to 100 | A (80–100) |  |  |  |  | 
4 | O=C(Nc1cc(NC(=O)C(F)F)c(F)cc1F)c1cc(NC(=O)[C@H]2[C@H](c3ccc(Cl)c(Cl)c3)C2(Cl)Cl)ccc1Cl [F1242, 2-Chloro-5-((1R,3R)-2,2-dichloro-3-(3,4-dichlorophenyl)cyclopropane-1-carboxamido)-N-(5-(2,2-difluoroacetamido)-2,4-difluorophenyl)benzamide] |  |  |  |  | 50 to 100 | 50 to 100 | 0 to 80 | A (80–100) | 
5 | CCC(C)C(=O)Nc1c(F)ccc(NC(=O)c2cc(NC(=O)[C@H]3[C@H](c4ccc(F)c(C(F)(F)F)c4)C3(Cl)Cl)ccc2Cl)c1F (stereo partly drawn) [F1642, 2-Chloro-5-((1R,3R)-2,2-dichloro-3-(4-fluoro-3-(trifluoromethyl)phenyl)cyclopropane-1-carboxamido)-N-(2,4-difluoro-3-(2-methylbutanamido)phenyl)benzamide] | 50 to 100 | 50 to 100 | 0 to 80 | A (80–100) |  |  |  |  | 
6 | O=C(Nc1ccc(F)cc1F)c1cc(NC(=O)[C@H]2[C@H](c3ccc(S(F)(F)(F)(F)F)cc3)C2(Cl)Cl)ccc1Cl (relative stereo) [F1089, trans-2-Chloro-5-(2,2-dichloro-3-(4-(pentafluoro-λ^6-sulfanyl)phenyl)cyclopropane-1-carboxamido)-N-(2,4-difluorophenyl)benzamide] |  |  |  |  | 50 to 100 | 50 to 100 | 0 to 80 | A (80–100) | 
7 | Cc1cc(NC(=O)[C@H]2[C@H](c3ccc(F)c(Cl)c3)C2(Cl)Cl)cc(C(=O)NCCCCl)c1Cl (relative stereo) [F2040, trans-2-Chloro-N-(3-chloropropyl)-5-(2,2-dichloro-3-(3-chloro-4-fluorophenyl)cyclopropane-1-carboxamido)-3-methylbenzamide] |  |  |  |  |  |  |  |  | pest or weed control at 50 µg/cm2 ([1]; Beet Armyworm, Table ABC / ABC-DP rating, read-out: BAW rating): 50 to 100%; pest or weed control at 50 µg/cm2 ([2]; Cabbage Looper, Table ABC / ABC-DP rating, read-out: CL rating): 50 to 100%; pest or weed control at 200 µg/mL ([3]; Green Peach Aphid, Table ABC / ABC-DP rating, read-out: GPA rating): 0 to 80%; YFM rating ([4]; Yellow Fever Mosquito, Table ABC / ABC-DP rating): A (80–100)
8 | C#CCN(C(=O)c1cc(NC(=O)[C@H]2[C@H](c3cc(Cl)cc(Cl)c3)C2(Cl)Cl)ccc1Cl)c1ccc(F)cc1C#N (relative stereo) [F1072, trans-2-Chloro-N-(2-cyano-4-fluorophenyl)-5-(2,2-dichloro-3-(3,5-dichlorophenyl)cyclopropane-1-carboxamido)-N-(prop-2-yn-1-yl)benzamide] |  |  |  |  | 50 to 100 | 50 to 100 | 0 to 80 | A (80–100) | 
9 | O=C(CC(F)(F)F)Nc1c(F)ccc(NC(=O)c2cc(NC(=O)[C@H]3[C@H](c4cc(F)cc(C(F)(F)F)c4)C3(Cl)Cl)ccc2Cl)c1F [F1710, 2-Chloro-5-((1R,3R)-2,2-dichloro-3-(3-fluoro-5-(trifluoromethyl)phenyl)cyclopropane-1-carboxamido)-N-(2,4-difluoro-3-(3,3,3-trifluoropropanamido)phenyl)benzamide] | 50 to 100 | 50 to 100 | 0 to 80 | A (80–100) |  |  |  |  | 
10 | O=C1CCC(C(=O)Nc2c(F)ccc(NC(=O)c3cc(NC(=O)[C@H]4[C@H](c5ccc(F)c(C(F)(F)F)c5)C4(Cl)Cl)ccc3Cl)c2F)O1 (stereo partly drawn) [F1625, N-(3-(2-Chloro-5-((1R,3R)-2,2-dichloro-3-(4-fluoro-3-(trifluoromethyl)phenyl)cyclopropane-1-carboxamido)benzamido)-2,6-difluorophenyl)-5-oxotetrahydrofuran-2-carboxamide] | 50 to 100 | 50 to 100 | 0 to 80 | A (80–100) |  |  |  |  | 
11 | O=C(Nc1ccc(F)c(NC(=O)C(F)(F)F)c1F)c1cc(NC(=O)[C@H]2[C@H](c3ccc(F)c(Cl)c3)C2(Cl)Cl)ccc1Cl [F1695, 2-Chloro-5-((1R,3R)-2,2-dichloro-3-(3-chloro-4-fluorophenyl)cyclopropane-1-carboxamido)-N-(2,4-difluoro-3-(2,2,2-trifluoroacetamido)phenyl)benzamide] | 50 to 100 | 50 to 100 | 80 to 100 | B (More than 0 – Less than 80) |  |  |  |  | 
12 | O=C(Nc1ccc(F)c(NC(=O)C(F)F)c1F)c1cc(NC(=O)[C@H]2[C@H](c3cc(F)cc(C(F)(F)F)c3)C2(Cl)Cl)ccc1Cl [F1711, 2-Chloro-5-((1R,3R)-2,2-dichloro-3-(3-fluoro-5-(trifluoromethyl)phenyl)cyclopropane-1-carboxamido)-N-(3-(2,2-difluoroacetamido)-2,4-difluorophenyl)benzamide] | 50 to 100 | 50 to 100 | 80 to 100 | A (80–100) |  |  |  |  | 
